How the values were obtained:
[1] = system: VCAM-1; experiment: Inhibition of TNFα-induced VCAM-1 expression in cultured endothelial cells (histological assessment); type: cell-based, humanen Ursprungs; settings: cultured human endothelial cells
Description: (§1) J. Clin. Endocrinol. Metab. 7:1619-1624 (1994) ausgeführt. Als Vergleich zu […] 17β-Estradiol, welches mit (x) gekennzeichnet wurde. Tabelle 1

[2] = system: ICAM-1; experiment: Inhibition of TNFα-induced ICAM-1 expression in cultured endothelial cells (histological assessment); type: cell-based, humanen Ursprungs; parameters: key: +: wenig wirksam; ++: gut wirksam; +++: sehr gut wirksam; settings: cultured human endothelial cells
Description: as §1

[3] = Adjuvant arthritis in male rats, oral, 21 days; type: in vivo, Lewis-Ratten; settings: for Sekundärarthritis Score: 8 per group, group sum, max. 72 (arthritic control); for % Hemmung Primärarthritis max. Wirkung: swelling of injected left hind paw
Experimental: Die Adjuvansarthritis bei Lewis-Ratten ist ein gut bekanntes und etabliertes Modell für die chronische Rheumatoid-Arthritis des Menschen [Newbould BB: Chemotherapy of arthritis induced in rats by mycobacterial adjuvant. Br. J. Pharmacol. 21:127-136 (1963); Hirschelmann R: Die 6-Sulfanilamidoindazol-Arthritis und die Adjuvansarthritis der Ratte als Modelle zur Testung von Antiphlogistika. Dissertation B (Habil.-Schrift), Halle, 1976]
Die Arthritis wurde durch Injektion von 0,1 ml Freund'sches Adjuvans in die linke Hinterpfote ausgelöst. Prüfparameter waren die Hemmung der Schwellung der linken Hinterpfote und der Grad der Sekundärarthritis durch Beurteilung der Schwellung der drei anderen Pfoten. Tabelle 3

[4] = type: in vivo, Mann
Description: Die aufgezeigten Systeme […] Studie an ä[…]. […] Alter von 52 bis 63 Jahren über 6 Monate […] Probanden nahm eine weitere Medikation ein. Bei 6 der 12 Probanden ergab […]-, Leber- und […] vor Beginn der Studie bei allen Probanden unauffällig. Auch die Plasma-[…] Testosteron > 12 nmol/[…] Testosteron > 0,2 nmol/[…] 6 Probanden […] OGTT erhöhte Gesamtcholesterol- und […] die In-vivo-Bestimmung der LDL-Cholesterol-Oxidation und die Hormonanalysen wurden zu Studienbeginn, danach wöchentlich und einen Tag […] und morgendlichem Fasten jeweils zwischen 8 und 10 Uhr morgens).

[5] = Pentetrazol kindling, seizure stages in male mice; type: in vivo, Mäuse
Experimental: Aus Tabelle 2 ist ersichtlich, daß J 861 - 14,15α-Methylen-8-dehydro-17α-estradiol z.B. bereits in einer Dosierung von 1 mg/kg nach einmaliger oraler Gabe eine Stunde vor der krampfauslösenden Pentetrazol-Injektion an männlichen Mäusen das Krampfstadium 3 hemmt. In steigender Dosierung und bei längerer Substanzapplikation werden auch die anderen Krampfstadien beeinflußt.

[6] = Carrageenin paw oedema of the male rat; type: in vivo, Ratte; settings: 24 hours after provocation of the oedema, inflammation no longer acute
[7] = target: T1, Estrogen-Rezeptor (Oryctolagus cuniculus, UniProt G1SML6); experiment: Estrogen receptor affinity, competitive binding with [3H]-Ethinylestradiol in uterus cytosol; parameters: species or system Kaninchen; settings: quotient of IC50 of 17β-Estradiol and of test substance; rabbit uterus cytosol; tracer [3H]-Ethinylestradiol 3 nM; 0 to 4 °C, 18 h
T1 construct: Es wurden weibliche Kaninchen (weiße Neuseeländer) im Gewicht von 1,5 bis 2 kg in Barbituratnarkose getötet, die Uteri entnommen; from tissue; host or cells: rabbit uterus cytosol (100 000 g supernatant of the homogenate)
T1 sequence (G1SML6 1-598): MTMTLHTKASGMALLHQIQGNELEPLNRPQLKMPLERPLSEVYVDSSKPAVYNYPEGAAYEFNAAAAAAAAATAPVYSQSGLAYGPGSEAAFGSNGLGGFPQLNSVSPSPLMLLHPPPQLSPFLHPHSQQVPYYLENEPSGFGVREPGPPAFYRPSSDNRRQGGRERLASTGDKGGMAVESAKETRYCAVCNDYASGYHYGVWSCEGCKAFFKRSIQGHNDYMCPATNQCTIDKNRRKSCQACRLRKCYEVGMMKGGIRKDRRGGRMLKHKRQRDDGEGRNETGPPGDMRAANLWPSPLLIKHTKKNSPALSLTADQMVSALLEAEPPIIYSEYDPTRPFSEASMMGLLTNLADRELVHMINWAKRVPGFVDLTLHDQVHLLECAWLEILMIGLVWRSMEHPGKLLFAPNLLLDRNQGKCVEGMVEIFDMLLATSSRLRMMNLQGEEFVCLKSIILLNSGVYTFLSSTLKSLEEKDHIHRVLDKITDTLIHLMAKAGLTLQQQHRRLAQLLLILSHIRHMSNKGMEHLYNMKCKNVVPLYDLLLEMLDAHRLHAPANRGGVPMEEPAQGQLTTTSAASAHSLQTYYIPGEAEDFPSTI
Experimental: Die Affinität zum Estrogen Rezeptor wurde in Kaninchen-Uterus-Cytosol bestimmt durch competitive Bindung von ^3H-markiertem Tracer und der jeweils zu testenden Verbindungen in Konzentrationsreihen, die die IC50 einschlossen. […] Das nach Zentrifugieren bei 16 000 g und 100 000 g gewonnene Cytosol wurde portionsweise schockgefroren und bei -30 °C aufbewahrt. Das geeignet verdünnte Cytosol (Rezeptorkonzentration ca. 0,3 nM) wurde mit dem Tracer [^3H]-Ethinylestradiol (3nM) und den zu prüfenden Competitoren bei 0 bis 4 °C für 18 Stunden inkubiert. Der freie Tracer wurde durch Adsorption an Aktivkohle/Dextran (1 %/0,1 %) und Zentrifugation abgetrennt und die gebundene ^3H-Aktivität im Überstand gemessen.

[8] = 1,0 mg/kg, single oral dose one hour before pentetrazol

For `C[C@]12CC[C@@H]3c4ccc(O)cc4CC[C@H]3[C@@H]1CC[C@H]2O` [17α-Estradiol], the “Hemmung der Expression von VCAM-1” value [1] was “+ +”, the “Hemmung der Expression von ICAM-1” value [2] was “+ +” and the “Sekundärarthritis Score” value ([3]; 1 mg/kg oral) was 43. The “% Hemmung Primärarthritis max. Wirkung” value ([3]; 1 mg/kg oral) was 36%, the “Sekundärarthritis Score” value ([3]; 10 mg/kg oral) was 35 and the “% Hemmung Primärarthritis max. Wirkung” value ([3]; 10 mg/kg oral) was 39%. For the same compound, the “Einfluß auf die gewählten Hormonparameter” value ([4]; 2 mg daily, 6 months, older men, includes missing SHBG rise) was “nicht signifikant beeinflußt”, the “Schlafqualität und Libido” value ([4]; 2 mg daily, 6 months, reported by subjects) was “Verbesserung” and the “Freies Testosteron” value ([4]; Versuchsende, after 6 months 2 mg daily, 12 overweight men 52-63 years, Versuchsbeginn 0.32 ± 0.14) was 0.33 ± 0.15 nmol/L. For the same compound, the DHEA ([4]; Versuchsende, after 6 months 2 mg daily, 12 overweight men 52-63 years, Versuchsbeginn 14.3 ± 10.6) was 13.46 ± 8.13 nmol/L, the Gesamt-Testosteron ([4]; Versuchsende, after 6 months 2 mg daily, 12 overweight men 52-63 years, Versuchsbeginn 16.5 ± 4.6) was 15.6 ± 5.1 nmol/L and the Insulin ([4]; Versuchsende, after 6 months 2 mg daily, 12 overweight men 52-63 years, Versuchsbeginn 17 ± 10) was 15 ± 9 mlE/L. For the same compound, the SHBG ([4]; Versuchsende, after 6 months 2 mg daily, 12 overweight men 52-63 years, Versuchsbeginn 38 ± 17) was 39 ± 18 nmol/L, the DHEAS ([4]; Versuchsende, after 6 months 2 mg daily, 12 overweight men 52-63 years, Versuchsbeginn 5412 ± 3711) was 5660 ± 3292 nmol/L and the “Lp(a)” value ([4]; Versuchsende, after 6 months 2 mg daily, Versuchsbeginn 6.0 ± 1.0) was 5.7 ± 0.7 mg/dL. It also gave an LDL-Cholesterol ([4]; Versuchsende, after 6 months 2 mg daily, Versuchsbeginn 154 ± 10.5) of 135 ± 5.2 mg/dL, a Gesamt-Cholesterol ([4]; Versuchsende, after 6 months 2 mg daily, Versuchsbeginn 225 ± 11.1, p<0.05) of 195 ± 5.7 mg/dL and a Triglyceride ([4]; Versuchsende, after 6 months 2 mg daily, Versuchsbeginn 226 ± 31.1, p<0.05) of 132 ± 1.5 mg/dL. For the same compound, the LDL-Cholesterol-Oxidation ([4]; older men under 17α-Estradiol, blood samples, figures not given) was “deutliche Verzögerung”.

For `C[C@]12CC[C@@H]3c4ccc(O)cc4CC[C@H]3[C@@H]1CC[C@@H]2O` [17β-Estradiol, reference compound], the “Hemmung der Expression von VCAM-1” value [1] was “+ +”, the “Hemmung der Expression von ICAM-1” value [2] was “+” and the “Sekundärarthritis Score” value ([3]; 1 mg/kg oral) was 47. The “% Hemmung Primärarthritis max. Wirkung” value ([3]; 1 mg/kg oral) was 21%, the “Sekundärarthritis Score” value ([3]; 10 mg/kg oral) was 36 and the “% Hemmung Primärarthritis max. Wirkung” value ([3]; 10 mg/kg oral) was 35%.

With `NC(=O)N1c2ccccc2C=Cc2ccccc21` [Carbamazepin, reference compound] the “Krampfstadien 1/2 Kl (Krampfindex gesenkt)” value ([5]; 24 mg/kg) was “-”, the “Krampfstadien 1/2 LZ[s] (Latenzzeit bis zur Ausprägung der Krämpfe erhöht)” value (shortened to “Krampfstadien 1/2 LZ[s]”) ([5]; 24 mg/kg) was “+” and the “Krampfstadien 3 Kl (Krampfindex gesenkt)” value ([5]; 24 mg/kg) was “-”. For the same compound, the “Krampfstadien 3 LZ[s] (Latenzzeit bis zur Ausprägung der Krämpfe erhöht)” value (shortened to “Krampfstadien 3 LZ[s]”) ([5]; 24 mg/kg) was “+”, the “Krampfstadien 4/5/6 Kl (Krampfindex gesenkt)” value ([5]; 24 mg/kg) was “+” and the “Krampfstadien 4/5/6 LZ[s] (Latenzzeit bis zur Ausprägung der Krämpfe erhöht)” value (“Krampfstadien 4/5/6 LZ[s]” for short) ([5]; 24 mg/kg) was “++”.

In the case of `O=C(O)Cc1ccccc1Nc1c(Cl)cccc1Cl` [Diclofenac-Natrium], the Hemmeffekte [6] is reported as “nur noch geringe Hemmeffekte”.

With `C[C@]12CCC3=C(CCc4cc(O)ccc43)[C@@H]1CC[C@H]2O` [J 811, 8-Dehydro-17α-estradiol] the “relative Bindungsaffinität zum Estrogen-Rezeptor (RBA)” value [7] was 21%.

In the case of `C[C@]12CCC3=C(CCc4cc(O)ccc43)[C@@]13C[C@H]3C[C@H]2O` [J 861, 14,15α-Methylen-8-dehydro-17α-estradiol], the “Hemmung der Expression von VCAM-1” value [1] is reported as “+ + +”, the “Hemmung der Expression von ICAM-1” value [2] is reported as “+ + +” and the “Krampfstadien 1/2 Kl (Krampfindex gesenkt)” value ([5]; 10 mg/kg) is reported as “-”. The “Krampfstadien 1/2 LZ[s]” value ([5]; 10 mg/kg) was “-”, the “Krampfstadien 3 Kl (Krampfindex gesenkt)” value ([5]; 10 mg/kg) was “++” and the “Krampfstadien 3 LZ[s]” value ([5]; 10 mg/kg) was “-”. The “Krampfstadien 4/5/6 Kl (Krampfindex gesenkt)” value ([5]; 10 mg/kg) was “+”, the “Krampfstadien 4/5/6 LZ[s]” value ([5]; 10 mg/kg) was “++” and the “Krampfstadien 1/2 Kl (Krampfindex gesenkt)” value ([5]; 100 mg/kg) was “-”. For the same compound, the “Krampfstadien 1/2 LZ[s]” value ([5]; 100 mg/kg) was “-”, the “Krampfstadien 3 Kl (Krampfindex gesenkt)” value ([5]; 100 mg/kg) was “++” and the “Krampfstadien 3 LZ[s]” value ([5]; 100 mg/kg) was “-”. For the same compound, the “Krampfstadien 4/5/6 Kl (Krampfindex gesenkt)” value ([5]; 100 mg/kg) was “+”, the “Krampfstadien 4/5/6 LZ[s]” value ([5]; 100 mg/kg) was “++” and the “Krampfstadien 1/2 Kl (Krampfindex gesenkt)” value [5, 8] was “-”. For the same compound, the “Krampfstadien 1/2 LZ[s]” value [5, 8] was “-”, the “Krampfstadien 3 Kl (Krampfindex gesenkt)” value [5, 8] was “+++” and the “Krampfstadien 3 LZ[s]” value [5, 8] was “-”. The “Krampfstadien 4/5/6 Kl (Krampfindex gesenkt)” value [5, 8] was “+”, the “Krampfstadien 4/5/6 LZ[s]” value [5, 8] was “+” and the “Sekundärarthritis Score” value ([3]; 1 mg/kg oral) was 72. The “% Hemmung Primärarthritis max. Wirkung” value ([3]; 1 mg/kg oral) was 16%, the “Sekundärarthritis Score” value ([3]; 10 mg/kg oral) was 46 and the “% Hemmung Primärarthritis max. Wirkung” value ([3]; 10 mg/kg oral) was 38%. For the same compound, the “Sekundärarthritis Score” value ([3]; 25 mg/kg oral) was 38, the “% Hemmung Primärarthritis max. Wirkung” value ([3]; 25 mg/kg oral) was 61% and the “Sekundärarthritis Score” value ([3]; 50 mg/kg oral) was 35. The “% Hemmung Primärarthritis max. Wirkung” value ([3]; 50 mg/kg oral) was 47% and the “relative Bindungsaffinität zum Estrogen-Rezeptor (RBA)” value [7] was 32%.
